Source: the supplement of paper PMC10627819

Tests used:
[1] = tested on: B. subtilis 168; assay: fitness (endpoint OD595 vs no drug) (fraction); higher = more growth
Outline: (§1)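 Fitness was defined as the optical density at the transition into stationary phase relative to the robust mean of no-drug control wells. Values were capped at 1. Cultures were started at OD595 0.01 in 384-well plates (30 µl, or 55 µl for S. pneumoniae) in TSB, LB Lennox or CY at 37 °C. OD595 was recorded every 30 min over 14 h, with the first reading subtracted as background.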

[2] = tested on: S. aureus Newman; assay: as above
Outline: as §1

[3] = tested on: S. pneumoniae D39V; assay: as above
Outline: as §1

[4] = tested on: S. aureus DSM 20231; assay: Bliss interaction score (quartile over a dose matrix) (fitness difference); higher = more antagonism (negative = synergy)
Outline: (§2)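 Growth in each well was taken as OD595 at entry into stationary phase. Dividing by the plate's robust no-drug mean and capping at 1 gave fitness, and single-drug fitness was inferred from the combination data. The Bliss score, observed minus product-expected fitness, is summarised by quartiles over technical, biological and donor/recipient replicates.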

[5] = tested on: B. subtilis 168; assay: as above
Outline: as §2

[6] = tested on: S. aureus Newman; assay: as above
Outline: as §2

[7] = tested on: S. pneumoniae D39V; assay: as above
Outline: as §2
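Wherever Bliss interaction score (quartile over a dose matrix) is given: first quartile when negative (synergy) and third quartile when positive (antagonism).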

O=C(O[C@@H]1Cc2c(O)cc(O)cc2O[C@@H]1c1cc(O)c(O)c(O)c1)c1cc(O)c(O)c(O)c1 [EGCG] + CN(C)c1cc(NC(=O)CNC(C)(C)C)c(O)c2c1C[C@H]1C[C@H]3[C@H](N(C)C)C(O)=C(C(N)=O)C(=O)[C@@]3(O)C(O)=C1C2=O [Tigecycline]
fitness
Conditions	first compound 6.25 µg/mL	first compound 12.5 µg/mL	first compound 25 µg/mL	first compound 50 µg/mL
[1], partner 0.039 µg/mL	0.929	–	–	–
[1], partner 0.078 µg/mL	0.929	–	–	–
[1], partner 0.156 µg/mL	0.91	–	–	–
[2], partner 0.039 µg/mL	–	0.755	0.744	–
[2], partner 0.078 µg/mL	–	0.797	0.788	0.657
[2], partner 0.156 µg/mL	–	0.82	0.721	0.796
[3], partner 0.325 µg/mL	–	0.913	0.97	0.958
[3], partner 0.65 µg/mL	–	0.912	0.971	0.951
[3], partner 1.3 µg/mL	–	0.928	0.916	0.954
[3], partner 2.6 µg/mL	–	0.897	0.929	0.935

fitness, [1], one replicate
Conditions	first compound 6.25 µg/mL	first compound 12.5 µg/mL	first compound 25 µg/mL
partner 0.125 µg/mL	≥ 1	0.897	0.55
partner 0.25 µg/mL	0.944	0.72	0.428
partner 0.5 µg/mL	0.942	0.757	0.418

Conditions	Bliss interaction score
[4]	-0.0488
[5]	0.0564
[6]	-0.067
[7]	0.079

O=C(O[C@@H]1Cc2c(O)cc(O)cc2O[C@@H]1c1cc(O)c(O)c(O)c1)c1cc(O)c(O)c(O)c1 [EGCG] + CN[C@@H]1[C@H](O[C@H]2[C@H](O[C@H]3[C@H](O)[C@@H](O)[C@H](N=C(N)N)[C@@H](O)[C@@H]3N=C(N)N)O[C@@H](C)[C@]2(O)C=O)O[C@@H](CO)[C@H](O)[C@H]1O [Streptomycin]
fitness
Conditions	first compound 6.25 µg/mL	first compound 12.5 µg/mL	first compound 25 µg/mL	first compound 50 µg/mL
[1], partner 2 µg/mL	0.918	–	0.325	–
[1], partner 4 µg/mL	0.823	0.718	0.299	–
[1], partner 8 µg/mL	–	0.522	–	–
[2], partner 1 µg/mL	–	0.774	0.773	0.713
[2], partner 2 µg/mL	–	0.772	0.767	0.747
[2], partner 4 µg/mL	–	–	0.453	–
[3], partner 2 µg/mL	–	0.887	0.933	0.937
[3], partner 4 µg/mL	–	0.902	0.914	0.968
[3], partner 8 µg/mL	–	0.881	0.943	0.981

[3], partner 16 µg/mL, one replicate
Conditions	fitness
first compound 12.5 µg/mL	0.756
first compound 25 µg/mL	0.759
first compound 50 µg/mL	0.762

Conditions	Bliss interaction score
[4]	0.136
[5]	0.303
[6]	0.0695
[7]	0.0781
